For 14 molecules, TGI and GI50 results are on record in PubChem BioAssay (NCI).

Test systems include TK-10 renal; UACC-62 melanoma; NCI-H226 lung; HOP-62 NSCLC; MDA-N; SF-295 CNS; EKVX NSCLC; SF-268 CNS; SNB-75 CNS; RPMI-8226 leukemia.
Test in all cases: NCI anticancer screen, dose series, 48 h

Structures are written as SMILES.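 Five compound concentrations were applied to cells in 96-well plates for 48 hours; endpoints were derived by simple linear interpolation of the resulting dose-response curve. GI50 = concentration required for 50% inhibition of growth. TGI: total growth inhibition.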 Where a SMILES comes first, the peptide text is derived from it. The star is where a group is joined. Cbz = O=C(OCc1ccccc1)*; NHNH2 = NN*

For `CC(C)(C)OC(=O)Cn1ncn(NC(=O)Cc2ccccc2)c1=O`, the TGI in the experiment with TK-10 renal, in the experiment with UACC-62 melanoma, with NCI-H226 lung, in the experiment on HOP-62 NSCLC, in the experiment on MDA-N and with SF-295 CNS was greater than 10 µM in each case. For the same molecule, the TGI with EKVX NSCLC and with SF-268 CNS was greater than 10 µM in each case.
Regarding `CCCC1(CCC)c2cc(/C=N\O)ccc2-c2ccc(-c3ccc(C(C)(C)C)cc3)cc21`, the TGI with TK-10 renal, in the experiment with HOP-62 NSCLC, with MDA-N, in the experiment with SNB-75 CNS, in the experiment with SF-295 CNS and with EKVX NSCLC was greater than 100 µM in each case. Besides, the TGI in the experiment with SF-268 CNS and in the experiment on RPMI-8226 leukemia was greater than 100 µM each time.
For `N#CCN(CC#N)C1CC=CCC1N(CC#N)CC#N` (configuration not stated), the TGI in the experiment with TK-10 renal, in the experiment with UACC-62 melanoma, with NCI-H226 lung, in the experiment on HOP-62 NSCLC, with MDA-N and in the experiment with SF-295 CNS was greater than 100 µM each time. Also, the TGI with EKVX NSCLC, in the experiment with SF-268 CNS and in the experiment on RPMI-8226 leukemia was greater than 100 µM each time.
For the molecule `Cc1c(N2C(=O)/C(=C/c3ccc(N(CCC#N)CCC#N)cc3)N=C2c2ccccc2)c(=O)n(-c2ccccc2)n1C`, the TGI in the experiment with UACC-62 melanoma, in the experiment with NCI-H226 lung, with HOP-62 NSCLC, with MDA-N, in the experiment with SF-295 CNS and with EKVX NSCLC was greater than 100 µM in each case. Further, the TGI in the experiment with SF-268 CNS and in the experiment on RPMI-8226 leukemia was greater than 100 µM in each case.
Take `CC[C@H](C)C1=C(O)[N@+]2([O-])Oc3ccc(-c4c(O)c(O)c(-c5ccc(O)cc5)c(OC(C)=O)c4OC(C)=O)cc3O[C@]2([C@@H](C)CC)C(=O)N1O`: the TGI with TK-10 renal, in the experiment on UACC-62 melanoma, with HOP-62 NSCLC, with MDA-N, in the experiment with SF-295 CNS and in the experiment with EKVX NSCLC was greater than 50 µM each time. The TGI in the experiment on SF-268 CNS was greater than 50 µM; in the experiment with RPMI-8226 leukemia, 29.9 µM.
In the case of `N#Cc1c(-c2ccc(Cl)cc2)c2c(N=Nc3c(O)ccc4ccccc34)[nH]nc2[nH]c1=O`, the TGI was determined as 1.8 µM in the experiment with TK-10 renal; 0.324 µM in the experiment on UACC-62 melanoma; 1.93 µM in the experiment on NCI-H226 lung; 1.82 µM in the experiment on HOP-62 NSCLC; 2.08 µM in the experiment with MDA-N; 1.18 µM in the experiment on SF-295 CNS. Moreover, the TGI with EKVX NSCLC came out at 2.19 µM; with SF-268 CNS it was 1.66 µM.
Take `C=CCCCCOC1C=CC(O)C(CO)O1` (configuration not stated): the TGI with TK-10 renal, in the experiment with UACC-62 melanoma, in the experiment with NCI-H226 lung, in the experiment on HOP-62 NSCLC, in the experiment with MDA-N and in the experiment with SF-295 CNS was greater than 100 µM in each case. Also, the TGI in the experiment on EKVX NSCLC, with SF-268 CNS and in the experiment on RPMI-8226 leukemia was greater than 100 µM each time.
As for `CN(C(=O)Cc1cc(Cl)c(Cl)cc1NC(=O)CN)[C@H]1CCCC[C@@H]1N1CCCC1`, the TGI in the experiment on TK-10 renal is greater than 100 µM; with UACC-62 melanoma, 30.2 µM; in the experiment on HOP-62 NSCLC, greater than 100 µM; in the experiment on MDA-N it was 31.7 µM; in the experiment on SNB-75 CNS, 55.9 µM; in the experiment on SF-295 CNS, 77.1 µM. In addition, the TGI in the experiment with EKVX NSCLC was greater than 100 µM; in the experiment on SF-268 CNS, greater than 100 µM; with RPMI-8226 leukemia, 94 µM.
As to `CCOC(=O)CCC(NC(=O)OCc1ccccc1)C(=O)NC(CCC(=O)OCC)C(=O)NN` (configuration not stated) (Cbz-Glu(OEt)-Glu(OEt)-NHNH2; configuration not given here), the TGI in the experiment with TK-10 renal, in the experiment with UACC-62 melanoma, in the experiment with NCI-H226 lung, in the experiment on HOP-62 NSCLC, with MDA-N and with SNB-75 CNS was greater than 100 µM in each case. Besides, the TGI in the experiment on EKVX NSCLC and with RPMI-8226 leukemia was greater than 100 µM each time.
For `O=C(Nc1nnc(-c2c(Cl)c(Cl)c(Cl)c(Cl)c2-c2nc3cc(C(=O)c4ccccc4)ccc3[nH]2)o1)c1ccc(Cl)cc1`, the TGI with TK-10 renal was greater than 100 µM; in the experiment on NCI-H226 lung it was greater than 100 µM; in the experiment on HOP-62 NSCLC it was 67.5 µM; with MDA-N it was 54.2 µM; with SNB-75 CNS it was greater than 100 µM; in the experiment with SF-295 CNS it was 42.4 µM. Further, the TGI in the experiment on EKVX NSCLC and in the experiment on RPMI-8226 leukemia was greater than 100 µM each time.
As for `COc1ccc(C(=O)N/N=C/c2c(C)n(C)n(-c3ccccc3)c2=O)cc1`, the TGI in the experiment on TK-10 renal, in the experiment on UACC-62 melanoma, with NCI-H226 lung, with HOP-62 NSCLC, with SNB-75 CNS and in the experiment with SF-295 CNS was greater than 100 µM each time. The TGI in the experiment on EKVX NSCLC, with SF-268 CNS and with RPMI-8226 leukemia was greater than 100 µM in each case.
For the molecule `COc1nc2c(c(=O)n1C)N=C(c1ccc(Cl)cc1)CC(c1ccccc1)N2` (configuration not stated), the TGI was 37.6 µM in the experiment on UACC-62 melanoma; 45.6 µM in the experiment on NCI-H226 lung; greater than 100 µM in the experiment on HOP-62 NSCLC; 37.8 µM in the experiment with MDA-N; 46.7 µM with SNB-75 CNS; 57.6 µM in the experiment with SF-295 CNS. Further, the TGI in the experiment on EKVX NSCLC was 69.2 µM; with RPMI-8226 leukemia, 54 µM.
Consider `ClCc1cccc(CSc2ncnc3c2ncn3Cc2cccc(CCl)c2)c1`, for which the GI50 is 1.93 µM in the experiment with TK-10 renal; 1.76 µM in the experiment with UACC-62 melanoma; 1.66 µM in the experiment on NCI-H226 lung; 1.8 µM with HOP-62 NSCLC; 1.51 µM with SNB-75 CNS; 2.13 µM in the experiment on SF-295 CNS. Moreover, the values for the GI50 in the experiment with EKVX NSCLC, in the experiment with SF-268 CNS and in the experiment on RPMI-8226 leukemia were 10.1 µM, 1.99 µM and 1.89 µM, respectively. Also, the TGI with TK-10 renal worked out at 3.61 µM; in the experiment with UACC-62 melanoma, 3.46 µM; in the experiment on NCI-H226 lung it was 4.54 µM; in the experiment on HOP-62 NSCLC it was 3.33 µM; with SNB-75 CNS it was 2.93 µM; with SF-295 CNS, 5.59 µM. Besides, the TGI in the experiment with EKVX NSCLC stood at 24.6 µM; in the experiment with SF-268 CNS, 4.91 µM; with RPMI-8226 leukemia, 4.86 µM.
For the molecule `CCCN1C(=O)/C(=C\c2ccc(OC)c(OC)c2)SC1=Nc1ccccc1`, the TGI is 74.1 µM in the experiment with TK-10 renal; greater than 100 µM with UACC-62 melanoma; greater than 100 µM in the experiment with NCI-H226 lung; 98.5 µM in the experiment with HOP-62 NSCLC; greater than 100 µM in the experiment on MDA-N; greater than 100 µM in the experiment on SF-295 CNS. In addition, the TGI with EKVX NSCLC, with SF-268 CNS and in the experiment on RPMI-8226 leukemia was greater than 100 µM each time.
